Assay results: patent US8012985B2, “Compounds with antiparasitic activity and medicines containing same” (Centre National de la Recherche Scientifique (C.N.R.S.), priority 2002, dated 2011)
Where a name gives a salt, the structure may show the parent alone. Read-outs that look alike come from different tables or passages of the source. Marks after values point to notes of the source that are not given here.

Legend:
[1] = tested on: P. falciparum; test: Antimalarial activity in vitro against P. falciparum (Desjardins test, [3H] hypoxanthine incorporation); format: cell-based; conditions: growth in vitro of P. falciparum
From the text: FIG. 1 represents the antimalarial activity of compound 6.0 as a function of the drug concentration, according to Desjardins' test, (Desjardins R. E. et al., Antimicrob. Agents Chemother. 1979, 16, 710-718).
(§1) A. Antimalarial Activity In Vitro Against P. Falciparum and In Vivo in Mice Infected with P. Vinckei
(§2) Tables 4 and 5 hereafter show the results of the IC50 values in μM and of ED50 (mg/kg) obtained with compounds of the invention.
(§3) The IC50 is the concentration which inhibits 50% of the growth in vitro of P. falciparum (the IC50 measurements were determined according to the method of Desjardins in which the incorporation of [^3H] hypoxanthine in the nucleic acids serves as a cell viability index) (FIG. 1), the ED50 is the effective dose for inhibiting 50% of the growth in vivo of P. vinckei according to a 4-day suppression test.

[2] = tested on: P. vinckei; test: Antimalarial activity in vivo in mice infected with P. vinckei, 4-day suppression test; conditions: for ED50: Plasmodium vinckei, 96 h
Procedure: as §1, §2, §3
TI corresponds to the therapeutic index, TI=LD50 (semi chronic)/ED50; ip: intraperitoneal administration; po: per os.

[3] = tested on: Babesia divergens; test: Antibabesia activity in vitro against Babesia divergens; format: cell-based
Procedure: (§4) The products 6.0, 22.0, and 2.0 were also evaluated in vitro for their activities against Babesia divergens and B. canis.

[4] = tested on: B. canis; test: Antibabesia activity in vitro against B. canis; format: cell-based
Procedure: as §4

[5] = set-up: species or system mice; conditions: mouse, in vivo
Procedure: The results are given hereafter of the pharmacokinetic parameters after administration by intra-peritoneal or oral route in mice for compound 6.0.
For determination of the serum level, bio-tests were used ex vivo: briefly, the medicament is administered to the animal, then blood samples are repeatedly taken. The sera are decomplemented for 30 minutes at 56° C. The active metabolite content is then determined by incubation of different concentrations (dichotomous dilution) of each serum, in the presence of suspensions of erythrocytes infected with P. falciparum, according to the method of DESJARDINS with [^3H] hypoxanthine.
The results are expressed in IS50, which corresponds to the percentage of serum (containing an active metabolite) capable of inhibiting 50% of the growth of P. falciparum.
This value is then converted into serum concentration (usually expressed in ng/ml), by testing the active compound directly (without passing via the animal), on the same suspension infected with P. falciparum and by determining its IC50 value (in ng/ml) [serum count ═IC50] (in ng/ml)×100/SI50 (in %)].
The results are expressed in log (serum count of medicaments), as a function of time, which allows the evaluation of the half-time for the distribution to the serum compartment t1/2(d); the half-time for the elimination of the serum compartment (t1/2(e)); of C0, corresponding to the serum count extrapolated to the origin in the elimination phase; of AUC (which indicates the quantity of drug circulating in the bloodstream); and the relative bio-availability in the administration method by oral route, versus the method by intraperitoneal route [AUC (po)/AUC (ip)] which signifies the degree of absorption by oral route.

[6] = ip, tested after 2 administrations of the compound per day for 4 days
[7] = po, tested after 2 administrations of the compound per day for 4 days

O=c1[nH]c(CCCCCCCCCCCCc2noc(=O)[nH]2)no1 [Compound 1.27, 1,12-bis[(1.2,4-oxadiazol-5(4H)-one)-3-yl]dodecane]
IC50 [1]: 9200 nM

O=S1NC(CCCCCCCCCCCCC2=NOS(=O)N2)=NO1 (stereo not drawn) [Compound 1.28, 1,12-bis[(1.2,3,5-oxathiadiazol-2(3H)-oxide)-4-yl]dodecane]
IC50 [1]: 200 nM

NC(CCCCCCCCCCCCC(N)=NOC(=O)c1ccccc1)=NOC(=O)c1ccccc1 [Compound 1.23, 1,12-bis(N,N′-benzoyloxyamidinyl)dodecane]
IC50 [1]: 1100 nM

O=c1[nH]c(CCCCCCCCCCCCc2nsc(=O)[nH]2)ns1 [Compound 1.30, 1,12-bis[(1.2,4-thiadiazol-5(4H)-one)-3-yl]dodecane]
ED50 (mg/Kg) P. vinckei ([2]; ip, 4-day suppression test): ip = 20 mg/Kg
IC50 [1]: 20 nM

CS(=O)(=O)OCC(=N)NCCCCCCCCCCCCNC(=N)COS(C)(=O)=O [Compound 20.12, 1,12-bis(N,N′-methylsulfonyloxyacetamidinyl)dodecane]
ED50 (mg/Kg) P. vinckei ([2]; ip, 4-day suppression test): ip = 4.7 mg/Kg
ED50 (mg/Kg) P. vinckei ([2]; po, 4-day suppression test): po = 42 mg/Kg

CCOC(=O)NC(=N)CCCCCCCCCCCCC(=N)NC(=O)OCC [Compound 1.2, 1,12-bis[N,N′-(ethyloxycarbonyl)amidinyl]dodecane]
ED50 (mg/Kg) P. vinckei ([2]; ip, 4-day suppression test): ip 33 mg/Kg
IC50 [1]: 300 nM

CC1(C)CN=C(NCCCCCCCCCCCCNC2=NCCC2)NC1 [25.0, 2 TFA]
IC50 [1]: 1.9 nM

N=C(CCCCCCCCCCCCC(=N)N1CCCC1)N1CCCC1 [Compound 2.0, 2 HCl, 1,14-di(pyrrolidin-1-yl)tetradecane-1,14-diimine]
IC50 [3]: < 50 nM
IC50 [4]: < 50 nM

1,12-bis[N,N′-(benzyloxycarbonyl)amidinyl]dodecane [Compound 1.5]
IC50 [1]: 400 nM

O=C(OCc1ccccc1)N1CCN=C1CCCCCCCCCCCCC1=NCCN1C(=O)OCc1ccccc1 [Compound 6.5, 1,12-bis[N,N′-(benzyloxycarbonyl)imidazolin-2-yl]dodecane]
ED50 (mg/Kg) P. vinckei [2, 6]: ip < 20* mg/Kg
ED50 (mg/Kg) P. vinckei [2, 7]: po ≈ 100* mg/Kg
IC50 [1]: 12000 nM

C(CCCCCCC1=NCCN1)CCCCCC1=NCCN1 [Compound 6.0, 1,12-bis(imidazolin-2-yl)dodecane]
ED50 (mg/Kg) P. vinckei [2, 6]: ip = 34* mg/Kg
ED50 (mg/Kg) P. vinckei [2, 7]: po = 62* mg/Kg
IC50 [1]: 2 nM

N=C1CCCN1CCCCCCCCCCCCN1CCCC1=N [Compound 24.0, 1,12-bis[N,N′-(2-iminopyrrolidinyl)]dodecane]
IC50 [1]: 4 nM

O=C(Oc1ccc(F)cc1)N1CCN=C1CCCCCCCCCCCCC1=NCCN1C(=O)Oc1ccc(F)cc1 [Compound 6.8, 1,12-bis[N,N′-(4-fluorophenylyloxycarbonyl)imidazolin-2-yl]dodecane]
IC50 [1]: 69500 nM

C(CCCCCCNC1=NCCC1)CCCCCNC1=NCCC1 [Compound 21.0, 1,12-bis[N,N′-(3,4-dihydro-2H-pyrrol-5-yl)amino]dodecane]
C0 ([5]; ip, 15 mg/kg): 24 ng/mL
t1/2 ([5]; ip, 15 mg/kg): approximately 35 hours
C0 ([5]; po, 100 mg/kg): 16 ng/mL
apparent t1/2 ([5]; po, 100 mg/kg): 36 h
ED50 (mg/Kg) P. vinckei [2, 6]: ip = 2.8* mg/Kg
ED50 (mg/Kg) P. vinckei [2, 7]: po = 85* mg/Kg
IC50 [1]: 3.8 nM

COC(=O)ON=C(N)CCCCCCCCCCCCC(N)=NOC(=O)OC [Compound 1.18, 1,12-bis(N,N′-methoxycarbonyloxyamidinyl)dodecane]
IC50 [1]: 1100 nM

CCNC(=O)ON=C(N)CCCCCCCCCCCCC(N)=NOC(=O)NCC [Compound 1.24, 1,12-bis(N,N′-ethylcarbamoyloxyamidinyl)dodecane]
ED50 (mg/Kg) P. vinckei ([2]; po, 4-day suppression test): po = 90 mg/Kg
IC50 [1]: 200 nM

CC(C)(C)OC(=O)N=C(NCCCCCCCCCCCCNC(=NC(=O)OC(C)(C)C)NC(=O)OC(C)(C)C)NC(=O)OC(C)(C)C [Compound 12.2, 1,12-bis(N,N′-di-tert-butyloxycarbonylguanidino)dodecane]
IC50 [1]: 1900 nM

CC(=N)NCCCCCCCCCCCCNC(C)=N [Compound 20.0, 1,12-bis(N,N′-acetamidinyl)dodecane]
ED50 (mg/Kg) P. vinckei [2, 6]: ip = 2.3* mg/Kg
IC50 [1]: 2 nM

1,12-bis[N,N′-(isobutyloxycarbonyl)amidinyl]dodecane [Compound 1.4]
IC50 [1]: 500 nM

NC(CCCCCCCCCCCCC(N)=NOC(=O)Oc1ccccc1)=NOC(=O)Oc1ccccc1 [Compound 1.19, 1,12-bis(N,N′-phenoxycarbonyloxyamidinyl)dodecane]
IC50 [1]: 3600 nM

N=C(CCCCCCCCCCCCC(=N)N1CCCCC1)N1CCCCC1 [Compound 3.0, 1,14-di(piperidin-1-yl)tetradecane-1,14-diimine]
IC50 ([1]; Plasmodium falciparum): 4.9 nM

NC(CCCCCCCCCCCCC(N)=NO)=NO [Compound 1.15, 1,12-bis(N,N′-hydroxyamidinyl)dodecane]
ED50 (mg/Kg) P. vinckei ([2]; po, 4-day suppression test): po = 120 mg/Kg
IC50 [1]: 3500 nM

Cc1noc(=O)n1CCCCCCCCCCCCn1c(C)noc1=O [Compound 20.14, 1,12-bis[N,N′(3-methyl-1,2,4-oxadiazol-5(4H)-one)-3-yl]dodecane]
ED50 ([2]; ip, 4-day suppression test): 9 mg/kg
ED50 ([2]; po, 4-day suppression test): 62 mg/kg
IC50 ([1]; Plasmodium falciparum): 7100 nM

CCOC(=O)ON=C(N)CCCCCCCCCCCCC(N)=NOC(=O)OCC [Compound 1.17, 1,12-bis(N,N′-ethoxycarbonyloxyamidinyl)dodecane]
IC50 [1]: 1200 nM

CON=C(N)CCCCCCCCCCCCC(N)=NOC [Compound 1.16, 1,12-bis(N,N′-methoxyamidinyl)dodecane]
IC50 [1]: 6800 nM

1,12-bis(N,N′-methoxyacetamidinyl)dodecane [Compound 20.2]
ED50 (mg/Kg) P. vinckei ([2]; ip, 4-day suppression test): ip = 10 mg/Kg
ED50 (mg/Kg) P. vinckei ([2]; po, 4-day suppression test): po = 110 mg/Kg
IC50 [1]: 4350 nM

CC(=O)ON=C(N)CCCCCCCCCCCCC(N)=NOC(C)=O [Compound 1.22, 1,12-bis(N,N′-acetoxyamidinyl)dodecane]
IC50 [1]: 1400 nM
